# Measured values taken from US8293775B2, “Benzoxazolone derivatives, processes for preparing them and their uses” (UCB Pharma, S.A., priority 2004, dated 2012).
# Tested on: 6-OHDA rat model
# Test: Hemi-parkinsonian (6-OHDA lesioned) rat model: prolongation of L-DOPA-induced contralateral rotations
# Conditions: second hour post administration (61-120 min); L-DOPA 50 mg/kg i.p. with vehicle (DMSO, i.p.); male Sprague-Dawley rats
smiles,measurement,value
"N[C@@H](Cc1ccc(O)c(O)c1)C(=O)O [L-Dopa, L-3,4-dihydroxyphenylalanine]",total number of rotations observed with L-Dopa alone,less than 50 turns
